US10414811B2, “Protease-resistant lipidated GLP-1 analogs” (MEDIMMUNE LIMITED, priority 2015, dated 2019)
Like-named read-outs stand apart in the source and are kept apart here. Numbered stars: 1 amine (or outer) side, 2 acyl side, 3 side chain; on linkers, the order of the positions; unused ones are H or OH. Square brackets hold non-standard residues; d marks the D form. Side chains are listed from the residue outwards. Peptide text beside a SMILES is read from it. * marks the point of attachment. γGlu = O=C(O)[C@H](CCC(=O)[*:2])N[*:1]; Palmitoyl = CCCCCCCCCCCCCCCC(=O)*; αMeF = C[C@](N)(Cc1ccccc1)C(=O)O; αMeK = C[C@](N)(CCCCN)C(=O)O; αMeS = C[C@](N)(CO)C(=O)O; Aib = CC(C)(N)C(=O)O

Legend:
Assay type in all cases: cell-based
[1] = molecular target: T1, human GLP-1 receptor (GLP-1R) (Homo sapiens, UniProt P43220); test: cAMP assay, human GLP-1R cells
T1 construct: expressed in transfected cells
Method in brief: (§1)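 Peptide-stimulated cAMP measured by two-step HTRF after a 30 min room-temperature incubation with receptor-expressing cells (hGLP-1R, hGIPR at 1×10^5 cells/ml; hGCGR at 2×10^5 cells/ml). Duplicate dilutions; EC50 from 4-parameter logistic fit of % Delta F.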

[2] = molecular target: T2, human glucagon receptor (GCGR) (Homo sapiens, UniProt P47871); test: cAMP assay, human GCGR cells; conditions: cAMP assay
T2 construct: expressed in transfected cells
Method in brief: as §1

[3] = molecular target: T3, human glucose-dependent insulinotropic peptide receptor (GIPR) (Homo sapiens, UniProt P48546); test: cAMP assay, human GIPR cells; conditions: cAMP assay
T3 construct: expressed in transfected cells
T3 sequence (P48546 22-466): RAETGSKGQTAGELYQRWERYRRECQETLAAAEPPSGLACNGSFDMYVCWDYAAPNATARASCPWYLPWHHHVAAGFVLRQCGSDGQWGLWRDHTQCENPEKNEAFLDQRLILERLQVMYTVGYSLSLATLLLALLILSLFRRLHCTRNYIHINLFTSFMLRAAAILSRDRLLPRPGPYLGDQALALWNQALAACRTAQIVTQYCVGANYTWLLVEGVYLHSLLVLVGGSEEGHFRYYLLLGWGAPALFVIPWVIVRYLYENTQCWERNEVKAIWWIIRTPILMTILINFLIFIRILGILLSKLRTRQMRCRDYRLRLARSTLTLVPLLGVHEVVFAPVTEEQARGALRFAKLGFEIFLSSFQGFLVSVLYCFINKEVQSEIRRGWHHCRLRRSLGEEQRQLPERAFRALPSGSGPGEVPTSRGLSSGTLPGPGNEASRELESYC
Method in brief: as §1

[4] = cAMP assay, first determination (n1), read-out: Primary assay EC50 GLP-1R n1
[5] = cAMP assay, second determination (n2), read-out: Primary assay EC50 GLP-1R n2
[6] = mean of n1 and n2, read-out: Mean pM GLP-1R
[7] = first determination (n1), read-out: Primary assay EC50 Gluc-R (n1)
[8] = second determination (n2), read-out: Primary assay EC50 Gluc-R (n2)
[9] = first determination (n1), read-out: Primary assay EC50 GIP-R (n1)
[10] = second determination (n2), read-out: Primary assay EC50 GIP-R (n2)

T2 sequence (P47871 26-477): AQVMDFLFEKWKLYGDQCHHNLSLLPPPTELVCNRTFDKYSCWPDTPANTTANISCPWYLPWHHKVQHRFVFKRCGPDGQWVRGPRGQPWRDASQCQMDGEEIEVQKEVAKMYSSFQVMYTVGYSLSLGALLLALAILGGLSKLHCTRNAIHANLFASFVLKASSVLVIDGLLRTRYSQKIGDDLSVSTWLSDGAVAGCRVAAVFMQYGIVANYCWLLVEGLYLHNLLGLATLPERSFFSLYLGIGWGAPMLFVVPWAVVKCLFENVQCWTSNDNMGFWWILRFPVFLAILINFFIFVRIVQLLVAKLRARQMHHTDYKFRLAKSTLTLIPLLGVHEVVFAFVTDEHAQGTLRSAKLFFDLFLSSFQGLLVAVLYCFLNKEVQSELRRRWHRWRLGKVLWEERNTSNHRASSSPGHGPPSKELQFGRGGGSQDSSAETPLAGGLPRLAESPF
T1 sequence (P43220 24-463): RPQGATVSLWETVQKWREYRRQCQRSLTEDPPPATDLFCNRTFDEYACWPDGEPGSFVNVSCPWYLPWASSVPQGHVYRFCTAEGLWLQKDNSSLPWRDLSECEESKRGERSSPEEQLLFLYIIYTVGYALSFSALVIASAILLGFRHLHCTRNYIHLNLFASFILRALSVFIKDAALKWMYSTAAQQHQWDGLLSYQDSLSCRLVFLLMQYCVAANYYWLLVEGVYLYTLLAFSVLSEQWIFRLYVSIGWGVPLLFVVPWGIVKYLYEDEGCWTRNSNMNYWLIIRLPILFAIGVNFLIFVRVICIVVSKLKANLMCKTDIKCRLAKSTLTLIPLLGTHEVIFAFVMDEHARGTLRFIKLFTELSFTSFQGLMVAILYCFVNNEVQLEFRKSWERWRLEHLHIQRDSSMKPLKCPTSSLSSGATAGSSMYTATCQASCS

Compound	EC50 [1, 4]	EC50 [1, 5]	EC50 [1, 6]	EC50 [2, 7]	EC50 [2, 8]	EC50 [3, 9]	EC50 [3, 10]
CCCCCCCCCCCCCCCC(=O)N[C@@H](CCC(=O)NCCCC[C@H](NC(=O)[C@@H](NC(=O)[C@](C)(Cc1ccccc1)NC(=O)[C@H](C)NC(=O)[C@@H](NC(=O)[C@](C)(Cc1ccccc1)NC(=O)[C@H](CCC(=O)O)NC(=O)[C@](C)(CCCCN)NC(=O)[C@H](C)NC(=O)[C@H](C)NC(=O)[C@H](CCC(=O)O)NC(=O)CNC(=O)[C@H](CCC(=O)O)NC(=O)[C@H](CC(C)C)NC(=O)[C@](C)(Cc1ccccc1)NC(=O)[C@H](CO)NC(=O)[C@](C)(CO)NC(=O)[C@@H](NC(=O)[C@H](CC(=O)O)NC(=O)[C@H](CO)NC(=O)[C@@H](NC(=O)[C@](C)(Cc1ccccc1)NC(=O)[C@H](CO)NC(=O)CNC(=O)[C@H](CCC(=O)O)NC(=O)C(C)(C)NC(=O)[C@@H](N)Cc1c[nH]cn1)[C@@H](C)O)C(C)C)[C@@H](C)CC)C(C)C)C(=O)N[C@@](C)(CCCCN)C(=O)NCC(=O)NCC(N)=O)C(=O)O [compound 73] (H-H[Aib]EGS[αMeF]TSDV[αMeS]S[αMeF]LEGEAA[αMeK]E[αMeF]IA[αMeF]VK([γGlu-Palmitoyl])[αMeK]GG-NH2)	130 pM	160 pM	146 pM	≥ 28 nM	≥ 28 nM	≥ 28 nM	≥ 28 nM
CCCCCCCCCCCCCCCC(=O)N[C@@H](CCC(=O)NCCCC[C@H](NC(=O)[C@H](CCC(=O)O)NC(=O)[C@](C)(CCCCN)NC(=O)[C@H](C)NC(=O)[C@H](C)NC(=O)[C@H](CCC(=O)O)NC(=O)CNC(=O)[C@H](CCC(=O)O)NC(=O)[C@H](CC(C)C)NC(=O)[C@](C)(Cc1ccccc1)NC(=O)[C@H](CO)NC(=O)[C@](C)(CO)NC(=O)[C@@H](NC(=O)[C@H](CC(=O)O)NC(=O)[C@H](CO)NC(=O)[C@@H](NC(=O)[C@](C)(Cc1ccccc1)NC(=O)[C@H](CO)NC(=O)CNC(=O)[C@H](CCC(=O)O)NC(=O)C(C)(C)NC(=O)[C@@H](N)Cc1c[nH]cn1)[C@@H](C)O)C(C)C)C(=O)N[C@H](C(=O)N[C@@H](C)C(=O)N[C@@](C)(Cc1ccccc1)C(=O)N[C@H](C(=O)N[C@H](C(=O)N[C@@](C)(CCCCN)C(=O)NCC(=O)NCC(N)=O)C(C)C)C(C)C)[C@@H](C)CC)C(=O)O [compound 78]	18 pM	9.3 pM	14 pM	≥ 28 nM	≥ 28 nM	≥ 28 nM	≥ 28 nM
CCCCCCCCCCCCCCCC(=O)N[C@@H](CCC(=O)NCCCC[C@H](NC(=O)[C@H](C)NC(=O)[C@H](CCC(=O)O)NC(=O)CNC(=O)[C@H](CCC(=O)O)NC(=O)[C@H](CC(C)C)NC(=O)[C@](C)(Cc1ccccc1)NC(=O)[C@H](CO)NC(=O)[C@](C)(CO)NC(=O)[C@@H](NC(=O)[C@H](CC(=O)O)NC(=O)[C@H](CO)NC(=O)[C@@H](NC(=O)[C@](C)(Cc1ccccc1)NC(=O)[C@H](CO)NC(=O)CNC(=O)[C@H](CCC(=O)O)NC(=O)C(C)(C)NC(=O)[C@@H](N)Cc1c[nH]cn1)[C@@H](C)O)C(C)C)C(=O)N[C@@](C)(CCCCN)C(=O)N[C@@H](CCC(=O)O)C(=O)N[C@@](C)(Cc1ccccc1)C(=O)N[C@H](C(=O)N[C@@H](C)C(=O)N[C@@](C)(Cc1ccccc1)C(=O)N[C@H](C(=O)N[C@H](C(=O)N[C@@](C)(CCCCN)C(=O)NCC(=O)NCC(N)=O)C(C)C)C(C)C)[C@@H](C)CC)C(=O)O [compound 81] (H-H[Aib]EGS[αMeF]TSDV[αMeS]S[αMeF]LEGEAK([γGlu-Palmitoyl])[αMeK]E[αMeF]IA[αMeF]VV[αMeK]GG-NH2; N-terminus assumed)	370 pM	200 pM	283 pM	≥ 27 nM	≥ 27 nM	≥ 27 nM	≥ 27 nM
CCCCCCCCCCCCCCCC(=O)N[C@@H](CCC(=O)NCCCC[C@H](NC(=O)[C@H](CC(C)C)NC(=O)[C@](C)(Cc1ccccc1)NC(=O)[C@H](CO)NC(=O)[C@](C)(CO)NC(=O)[C@@H](NC(=O)[C@H](CC(=O)O)NC(=O)[C@H](CO)NC(=O)[C@@H](NC(=O)[C@](C)(Cc1ccccc1)NC(=O)[C@H](CO)NC(=O)CNC(=O)[C@H](CCC(=O)O)NC(=O)C(C)(C)NC(=O)[C@@H](N)Cc1c[nH]cn1)[C@@H](C)O)C(C)C)C(=O)NCC(=O)N[C@@H](CCC(=O)O)C(=O)N[C@@H](C)C(=O)N[C@@H](C)C(=O)N[C@@](C)(CCCCN)C(=O)N[C@@H](CCC(=O)O)C(=O)N[C@@](C)(Cc1ccccc1)C(=O)N[C@H](C(=O)N[C@@H](C)C(=O)N[C@@](C)(Cc1ccccc1)C(=O)N[C@H](C(=O)N[C@H](C(=O)N[C@@](C)(CCCCN)C(=O)NCC(=O)NCC(N)=O)C(C)C)C(C)C)[C@@H](C)CC)C(=O)O [compound 85] (H-H[Aib]EGS[αMeF]TSDV[αMeS]S[αMeF]LK([γGlu-Palmitoyl])GEAA[αMeK]E[αMeF]IA[αMeF]VV[αMeK]GG-NH2; N-terminus assumed)	66 pM	140 pM	101 pM	≥ 28 nM	≥ 28 nM	≥ 28 nM	≥ 28 nM
CCCCCCCCCCCCCCCC(=O)N[C@@H](CCC(=O)NCCCC[C@H](NC(=O)[C@@H](NC(=O)[C@H](CC(=O)O)NC(=O)[C@H](CO)NC(=O)[C@@H](NC(=O)[C@](C)(Cc1ccccc1)NC(=O)[C@H](CO)NC(=O)CNC(=O)[C@H](CCC(=O)O)NC(=O)C(C)(C)NC(=O)[C@@H](N)Cc1c[nH]cn1)[C@@H](C)O)C(C)C)C(=O)N[C@@H](CO)C(=O)N[C@@](C)(Cc1ccccc1)C(=O)N[C@@H](CC(C)C)C(=O)N[C@@H](CCC(=O)O)C(=O)NCC(=O)N[C@@H](CCC(=O)O)C(=O)N[C@@H](C)C(=O)N[C@@H](C)C(=O)N[C@@](C)(CCCCN)C(=O)N[C@@H](CCC(=O)O)C(=O)N[C@@](C)(Cc1ccccc1)C(=O)N[C@H](C(=O)N[C@@H](C)C(=O)N[C@@](C)(Cc1ccccc1)C(=O)N[C@H](C(=O)N[C@H](C(=O)N[C@@](C)(CCCCN)C(=O)NCC(=O)NCC(N)=O)C(C)C)C(C)C)[C@@H](C)CC)C(=O)O [compound 89]	450 pM	650 pM	548 pM	≥ 28 nM	≥ 28 nM	≥ 28 nM	≥ 28 nM
CCCCCCCCCCCCCCCC(=O)N[C@@H](CCC(=O)NCCCC[C@H](NC(=O)[C@@H](NC(=O)[C@](C)(Cc1ccccc1)NC(=O)[C@H](CO)NC(=O)CNC(=O)[C@H](CCC(=O)O)NC(=O)C(C)(C)NC(=O)[C@@H](N)Cc1c[nH]cn1)[C@@H](C)O)C(=O)N[C@@H](CC(=O)O)C(=O)N[C@H](C(=O)N[C@@](C)(CO)C(=O)N[C@@H](CO)C(=O)N[C@@](C)(Cc1ccccc1)C(=O)N[C@@H](CC(C)C)C(=O)N[C@@H](CCC(=O)O)C(=O)NCC(=O)N[C@@H](CCC(=O)O)C(=O)N[C@@H](C)C(=O)N[C@@H](C)C(=O)N[C@@](C)(CCCCN)C(=O)N[C@@H](CCC(=O)O)C(=O)N[C@@](C)(Cc1ccccc1)C(=O)N[C@H](C(=O)N[C@@H](C)C(=O)N[C@@](C)(Cc1ccccc1)C(=O)N[C@H](C(=O)N[C@H](C(=O)N[C@@](C)(CCCCN)C(=O)NCC(=O)NCC(N)=O)C(C)C)C(C)C)[C@@H](C)CC)C(C)C)C(=O)O [compound 92] (H-H[Aib]EGS[αMeF]TK([γGlu-Palmitoyl])DV[αMeS]S[αMeF]LEGEAA[αMeK]E[αMeF]IA[αMeF]VV[αMeK]GG-NH2; N-terminus assumed)	450 pM	390 pM	423 pM	≥ 28 nM	≥ 28 nM	≥ 28 nM	≥ 28 nM
CCCCCCCCCCCCCCCC(=O)N[C@@H](CCC(=O)NCCCC[C@H](NC(=O)[C@H](CO)NC(=O)CNC(=O)[C@H](CCC(=O)O)NC(=O)C(C)(C)NC(=O)[C@@H](N)Cc1c[nH]cn1)C(=O)N[C@H](C(=O)N[C@@H](CO)C(=O)N[C@@H](CC(=O)O)C(=O)N[C@H](C(=O)N[C@@](C)(CO)C(=O)N[C@@H](CO)C(=O)N[C@@](C)(Cc1ccccc1)C(=O)N[C@@H](CC(C)C)C(=O)N[C@@H](CCC(=O)O)C(=O)NCC(=O)N[C@@H](CCC(=O)O)C(=O)N[C@@H](C)C(=O)N[C@@H](C)C(=O)N[C@@](C)(CCCCN)C(=O)N[C@@H](CCC(=O)O)C(=O)N[C@@](C)(Cc1ccccc1)C(=O)N[C@H](C(=O)N[C@@H](C)C(=O)N[C@@](C)(Cc1ccccc1)C(=O)N[C@H](C(=O)N[C@H](C(=O)N[C@@](C)(CCCCN)C(=O)NCC(=O)NCC(N)=O)C(C)C)C(C)C)[C@@H](C)CC)C(C)C)[C@@H](C)O)C(=O)O [compound 94]	140 pM	320 pM	228 pM	≥ 28 nM	≥ 28 nM	≥ 28 nM	≥ 28 nM
